Like-named read-outs stand apart in the source and are kept apart here.
What was measured:
[1] = Plasma concentration of fluocinolone acetonide after FA screw implant in the stifle joint of sheep; type: in vivo, Ovis aries (Sheep); details: intra-articular FA screw implants in the stifle joint, FIG. 1
Description: (§1) The objective of this study was to determine both the local and systemic pharmacokinetic profile of an intra-articular fluocinolone acetonide (FA screw) implant in the stifle joint of sheep. The animals underwent surgical implantation of the FA Screw test device in the stifle joint on Day 1. Following a recovery period, blood and synovial fluid were collected periodically for pharmacokinetic determination. Following completion of a 24 month observation period, the animals were euthanized and subjected to necropsy.
(§2) Devices were administered once via surgical implantation on Day 1.
(§3) The implant was a polymer-coated, sustained-release delivery system for Fluocinolone Acetonide (FA). The implant contained 55 mg of FA and was designed to deliver the drug for approximately 3 years. The tablet core contained approximately 55 mg of FA granulated with 10% PVA. The tablet core was positioned and adhered via an adhesive, such as a silicone adhesive, in the interchangeable head of the bone screw. The overall device geometry was that of a cancellous bone screw (i.e. the base) in which the head of the screw has been hollowed out to accept a removable cup (i.e. the payload) containing the drug tablet. In this embodiment, the screw was approximately 11/16″ in length and is no more than ¼″ at its widest point (i.e. the screw head), The payload was sized to fit into the screw and to accommodate the tablet. […]

[2] = Fluocinolone acetonide concentration in dog synovial fluid after intraarticular implants in knee joints; type: in vivo, Canis familiaris; details: for concentration at 3 day / concentration at 7 day / concentration at 21 day / concentration at 29 day / concentration at 56 day: dog, other: bilateral intraarticular implants (knee joints)
Experimental: Devices were administered once via bilateral intraarticular implants. The day of surgical implantation was Day 1. The devices were made as follows. Fluocinolone acetonide, USP, was compressed into 1.5 mm diameter tablets using standard pharmaceutical methods. The tablets were placed into preformed cups made from silicone elastomer. Cup size was dependent on dosage form. These cups were attached to […] (PVA) suture tabs. For the 2 mg implants, the surface of the tablet not coated with silicone was attached to a suture tab with PVA solution. For the […] implant, a side of the silicone cup was attached perpendicular to the suture tab. Finally, the assemblies were dip coated with PVA. The implants were then cured at 135° C. for 5 hours and placed within the primary package. The product in the primary package was placed in a self-adhesive pouch and sterilized using gamma irradiation. Surgery was performed on both knee joints of all animals. A lateral skin incision was made to expose the fascia lata overlying the vastus lateralis cranially and the biceps fernoris caudally. The joint was exposed through an incision in the lateral intermuscular septum to expose the femur by anterior retraction of the vastus lateralis and posterior retraction of the biceps femoris. Care was taken not to disrupt the tendon of origin of the long digital extensor as it originates from the lateral femoral condyle. The joint capsule was opened, the patella luxated medially, and the joint was held in full flexion. 2 mg devices were placed in the right leg and 18 mg implants were placed in the left leg. The implants were placed within the anterior intercondyloid fossa, immediately lateral to the origin of the posterior cruciate ligament. The bone may be slightly deepened at this location with a curette to accept the implant. The implant was sutured in place to the posterior cruciate ligament. The joint capsule was closed with 3/0 PDS in a simple interrupted fashion. The retinaculum and intermuscular septum were closed with 2/0 Vicryl in a continuous pattern. The fascia lata were closed with 2/0 PDS, and the subcutaneous tissues with 3/0 PDS, both in a simple continuous pattern. The skin was closed with 3/0 Vicryl in a subcuticular pattern. After anesthesia (acepromazine, 0.2 mg/kg. IM followed by sodium pentobarbital, 22 mg/kg, IV, to effect), an attempt was made to obtain synovial fluid. Syriovial fluid samples were immediately stored at ≦−70° C. in polypropylene tubes until transferred.

[3] = Synovial fluid concentration of fluocinolone acetonide after FA screw implant in the stifle joint of sheep; type: in vivo, Ovis aries (Sheep); details: at three and eight weeks, FIG. 1
Description: as §1, §2, §3

CC1(C)O[C@@H]2C[C@H]3[C@@H]4C[C@H](F)C5=CC(=O)C=C[C@]5(C)[C@@]4(F)[C@@H](O)C[C@]3(C)[C@]2(C(=O)CO)O1 [Fluocinolone Acetonide]
Plasma levels [1]: 0 to 0.35 ng/mL
Assayed Concentrations of Fluocinolone Acetonide in Dog Synovial Fluid Samples (Right Leg) ([2]; Right leg (2 mg devices), Dog 1001, Day 21): 7.27 ng/mL
Assayed Concentrations of Fluocinolone Acetonide in Dog Synovial Fluid Samples (Right Leg) ([2]; Right leg (2 mg devices), Dog 2001, Day 7): 98.4 ng/mL
Assayed Concentrations of Fluocinolone Acetonide in Dog Synovial Fluid Samples (Right Leg) ([2]; Right leg (2 mg devices), Dog 2002, Day 7): 47.7 ng/mL
Assayed Concentrations of Fluocinolone Acetonide in Dog Synovial Fluid Samples (Right Leg) ([2]; Right leg (2 mg devices), Dog 2002, Day 21): 144 ng/mL
Assayed Concentrations of Fluocinolone Acetonide in Dog Synovial Fluid Samples (Right Leg) ([2]; Right leg (2 mg devices), Dog 3001, Day 7): 171 ng/mL
Assayed Concentrations of Fluocinolone Acetonide in Dog Synovial Fluid Samples (Right Leg) ([2]; Right leg (2 mg devices), Dog 3001, Day 21): 51.5 ng/mL
Assayed Concentrations of Fluocinolone Acetonide in Dog Synovial Fluid Samples (Right Leg) ([2]; Right leg (2 mg devices), Dog 3002, Day 7): 8.30 ng/mL
concentration at 3 day ([2]; synovial fluid (left knee joint), 18 mg, Left leg (18 mg implants), Dog 1001, Day 3, read-out: Assayed Concentrations of Fluocinolone Acetonide in Dog Synovial Fluid Samples (Left Leg)): 656 ng/mL
concentration at 7 day ([2]; synovial fluid (left knee joint), 18 mg, Left leg (18 mg implants), Dog 1001, Day 7, read-out: Assayed Concentrations of Fluocinolone Acetonide in Dog Synovial Fluid Samples (Left Leg)): 290 ng/mL
concentration at 21 day ([2]; synovial fluid (left knee joint), 18 mg, Left leg (18 mg implants), Dog 1001, Day 21, read-out: Assayed Concentrations of Fluocinolone Acetonide in Dog Synovial Fluid Samples (Left Leg)): 1070 ng/mL
concentration at 29 day ([2]; synovial fluid (left knee joint), 18 mg, Left leg (18 mg implants), Dog 1001, Day 29, read-out: Assayed Concentrations of Fluocinolone Acetonide in Dog Synovial Fluid Samples (Left Leg)): 457 ng/mL
concentration at 56 day ([2]; synovial fluid (left knee joint), 18 mg, Left leg (18 mg implants), Dog 1001, Day 56, read-out: Assayed Concentrations of Fluocinolone Acetonide in Dog Synovial Fluid Samples (Left Leg)): 202000 ng/mL
concentration at 3 day ([2]; synovial fluid (left knee joint), 18 mg, Left leg (18 mg implants), Dog 1002, Day 3, read-out: Assayed Concentrations of Fluocinolone Acetonide in Dog Synovial Fluid Samples (Left Leg)): 357 ng/mL
concentration at 7 day ([2]; synovial fluid (left knee joint), 18 mg, Left leg (18 mg implants), Dog 1002, Day 7, read-out: Assayed Concentrations of Fluocinolone Acetonide in Dog Synovial Fluid Samples (Left Leg)): 405 ng/mL
concentration at 21 day ([2]; synovial fluid (left knee joint), 18 mg, Left leg (18 mg implants), Dog 1002, Day 21, read-out: Assayed Concentrations of Fluocinolone Acetonide in Dog Synovial Fluid Samples (Left Leg)): 373 ng/mL
concentration at 29 day ([2]; synovial fluid (left knee joint), 18 mg, Left leg (18 mg implants), Dog 1002, Day 29, read-out: Assayed Concentrations of Fluocinolone Acetonide in Dog Synovial Fluid Samples (Left Leg)): 379 ng/mL
concentration at 56 day ([2]; synovial fluid (left knee joint), 18 mg, Left leg (18 mg implants), Dog 1002, Day 56, read-out: Assayed Concentrations of Fluocinolone Acetonide in Dog Synovial Fluid Samples (Left Leg)): 541 ng/mL
concentration at 3 day ([2]; synovial fluid (left knee joint), 18 mg, Left leg (18 mg implants), Dog 2001, Day 3, read-out: Assayed Concentrations of Fluocinolone Acetonide in Dog Synovial Fluid Samples (Left Leg)): 89 ng/mL
concentration at 7 day ([2]; synovial fluid (left knee joint), 18 mg, Left leg (18 mg implants), Dog 2001, Day 7, read-out: Assayed Concentrations of Fluocinolone Acetonide in Dog Synovial Fluid Samples (Left Leg)): 194 ng/mL
concentration at 29 day ([2]; synovial fluid (left knee joint), 18 mg, Left leg (18 mg implants), Dog 2001, Day 29, read-out: Assayed Concentrations of Fluocinolone Acetonide in Dog Synovial Fluid Samples (Left Leg)): 57.8 ng/mL
concentration at 3 day ([2]; synovial fluid (left knee joint), 18 mg, Left leg (18 mg implants), Dog 2002, Day 3, read-out: Assayed Concentrations of Fluocinolone Acetonide in Dog Synovial Fluid Samples (Left Leg)): 193 ng/mL
concentration at 7 day ([2]; synovial fluid (left knee joint), 18 mg, Left leg (18 mg implants), Dog 2002, Day 7, read-out: Assayed Concentrations of Fluocinolone Acetonide in Dog Synovial Fluid Samples (Left Leg)): 279 ng/mL
concentration at 21 day ([2]; synovial fluid (left knee joint), 18 mg, Left leg (18 mg implants), Dog 2002, Day 21, read-out: Assayed Concentrations of Fluocinolone Acetonide in Dog Synovial Fluid Samples (Left Leg)): 393 ng/mL
concentration at 29 day ([2]; synovial fluid (left knee joint), 18 mg, Left leg (18 mg implants), Dog 2002, Day 29, read-out: Assayed Concentrations of Fluocinolone Acetonide in Dog Synovial Fluid Samples (Left Leg)): 956 ng/mL
concentration at 3 day ([2]; synovial fluid (left knee joint), 18 mg, Left leg (18 mg implants), Dog 3001, Day 3, read-out: Assayed Concentrations of Fluocinolone Acetonide in Dog Synovial Fluid Samples (Left Leg)): 788 ng/mL
concentration at 7 day ([2]; synovial fluid (left knee joint), 18 mg, Left leg (18 mg implants), Dog 3001, Day 7, read-out: Assayed Concentrations of Fluocinolone Acetonide in Dog Synovial Fluid Samples (Left Leg)): 35300 ng/mL
concentration at 21 day ([2]; synovial fluid (left knee joint), 18 mg, Left leg (18 mg implants), Dog 3001, Day 21, read-out: Assayed Concentrations of Fluocinolone Acetonide in Dog Synovial Fluid Samples (Left Leg)): 5180 ng/mL
concentration at 56 day ([2]; synovial fluid (left knee joint), 18 mg, Left leg (18 mg implants), Dog 3001, Day 56, read-out: Assayed Concentrations of Fluocinolone Acetonide in Dog Synovial Fluid Samples (Left Leg)): 36.9 ng/mL
concentration at 3 day ([2]; synovial fluid (left knee joint), 18 mg, Left leg (18 mg implants), Dog 3002, Day 3, read-out: Assayed Concentrations of Fluocinolone Acetonide in Dog Synovial Fluid Samples (Left Leg)): 207 ng/mL
concentration at 7 day ([2]; synovial fluid (left knee joint), 18 mg, Left leg (18 mg implants), Dog 3002, Day 7, read-out: Assayed Concentrations of Fluocinolone Acetonide in Dog Synovial Fluid Samples (Left Leg)): 251 ng/mL
concentration at 21 day ([2]; synovial fluid (left knee joint), 18 mg, Left leg (18 mg implants), Dog 3002, Day 21, read-out: Assayed Concentrations of Fluocinolone Acetonide in Dog Synovial Fluid Samples (Left Leg)): 276 ng/mL
concentration at 29 day ([2]; synovial fluid (left knee joint), 18 mg, Left leg (18 mg implants), Dog 3002, Day 29, read-out: Assayed Concentrations of Fluocinolone Acetonide in Dog Synovial Fluid Samples (Left Leg)): 210 ng/mL
concentration at 3 day ([2]; synovial fluid (right knee joint), 2 mg, Right leg (2 mg devices), Dog 1001, Day 3, read-out: Assayed Concentrations of Fluocinolone Acetonide in Dog Synovial Fluid Samples (Right Leg)): 52 ng/mL
concentration at 7 day ([2]; synovial fluid (right knee joint), 2 mg, Right leg (2 mg devices), Dog 1001, Day 7, read-out: Assayed Concentrations of Fluocinolone Acetonide in Dog Synovial Fluid Samples (Right Leg)): 62.4 ng/mL
concentration at 56 day ([2]; synovial fluid (right knee joint), 2 mg, Right leg (2 mg devices), Dog 1001, Day 56, read-out: Assayed Concentrations of Fluocinolone Acetonide in Dog Synovial Fluid Samples (Right Leg)): 19.3 ng/mL
concentration at 3 day ([2]; synovial fluid (right knee joint), 2 mg, Right leg (2 mg devices), Dog 1002, Day 3, read-out: Assayed Concentrations of Fluocinolone Acetonide in Dog Synovial Fluid Samples (Right Leg)): 36.6 ng/mL
concentration at 3 day ([2]; synovial fluid (right knee joint), 2 mg, Right leg (2 mg devices), Dog 2001, Day 3, read-out: Assayed Concentrations of Fluocinolone Acetonide in Dog Synovial Fluid Samples (Right Leg)): 600 ng/mL
concentration at 3 day ([2]; synovial fluid (right knee joint), 2 mg, Right leg (2 mg devices), Dog 2002, Day 3, read-out: Assayed Concentrations of Fluocinolone Acetonide in Dog Synovial Fluid Samples (Right Leg)): 24.4 ng/mL
concentration at 3 day ([2]; synovial fluid (right knee joint), 2 mg, Right leg (2 mg devices), Dog 3001, Day 3, read-out: Assayed Concentrations of Fluocinolone Acetonide in Dog Synovial Fluid Samples (Right Leg)): 57.9 ng/mL
concentration at 29 day ([2]; synovial fluid (right knee joint), 2 mg, Right leg (2 mg devices), Dog 3001, Day 29, read-out: Assayed Concentrations of Fluocinolone Acetonide in Dog Synovial Fluid Samples (Right Leg)): 16.4 ng/mL
concentration at 3 day ([2]; synovial fluid (right knee joint), 2 mg, Right leg (2 mg devices), Dog 3002, Day 3, read-out: Assayed Concentrations of Fluocinolone Acetonide in Dog Synovial Fluid Samples (Right Leg)): 40.7 ng/mL
concentration at 29 day ([2]; synovial fluid (right knee joint), 2 mg, Right leg (2 mg devices), Dog 3002, Day 29, read-out: Assayed Concentrations of Fluocinolone Acetonide in Dog Synovial Fluid Samples (Right Leg)): 7.86 ng/mL
increase in FA concentrations in the synovial fluid [3]: three-fold increase

— US6936270B2, “Device and method for treating conditions of a joint” (Control Delivery Systems, Inc., priority 2000, dated 2005)
